Measured values as given in PubChem BioAssay (NCI).
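All cell lines were grown in 96-well plates and treated with compound for 48 hours. Here, GI50 denotes the concentration required for 50% inhibition of growth. Definition used: TGI = concentration required for complete inhibition of growth.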

Columns and labels:
Assay in all cases: NCI-60 cell line screen, 48 h
[1] = system: OVCAR-8 ovarian
[2] = system: HCC-2998 colon
[3] = system: RXF 393 renal
[4] = system: A549 NSCLC
[5] = system: SK-OV-3 ovarian
[6] = system: KM12 colon
[7] = system: M14 melanoma
[8] = system: SK-MEL-2 melanoma
[9] = system: MDA-N
[10] = system: NCI-H23 lung
[11] = system: SR leukemia

Compound | TGI [1] [µM] | TGI [2] [µM] | TGI [3] [µM] | TGI [4] [µM] | TGI [5] [µM] | TGI [6] [µM] | TGI [7] [µM] | TGI [8] [µM] | TGI [9] [µM] | TGI [10] [µM] | TGI [11] [µM] | GI50 [3] [µM] | GI50 [7] [µM] | GI50 [8] [µM]
CC1=C2C(=O)[C@H]3[C@@H](CC=C4C[C@@H](O)CC[C@@]43C)[C@@H]2CC[C@]12O[C@@H]1C[C@H](C)CN[C@H]1[C@H]2C | > 69.1 | > 82.8 | > 53 | > 64.2 | > 57.3 | > 83.4 | > 60.4 | > 72.5 | > 100 | > 58 | – | – | – | –
COC(=O)C(CCCC1(c2ccccc2)OCCO1)C(C)=O (stereo unspecified) | > 100 | > 100 | > 100 | > 100 | > 100 | > 100 | > 100 | > 100 | – | > 100 | > 100 | – | – | –
O=C/C(=C(/Br)I)c1ccccc1 | 10.6 | – | 7.2 | 56.2 | 23.2 | 19 | 4.01 | 13.5 | 6.86 | 12.7 | 2.3 | – | – | –
COc1ccc(N2C(=O)C3ON(C(C(N)=O)c4ccccc4)C(c4ccc(-c5ccccc5)cc4)C3C2=O)cc1 (stereo unspecified) | > 50 | – | > 50 | > 50 | > 50 | > 50 | > 50 | > 50 | – | > 50 | > 50 | – | – | –
COc1ccc2nc3cccc([N+](=O)[O-])c3c(NCCO)c2c1 | 0.0532 | 0.0395 | 0.0274 | 0.0909 | 0.752 | 0.149 | 0.0228 | 0.0368 | 0.0234 | 0.0624 | – | – | – | –
Cc1cccc2c1Oc1ccccc1C2NC(=O)c1ccc([N+](=O)[O-])cc1 (stereo unspecified) | > 100 | – | 89.2 | > 100 | – | > 100 | > 100 | > 100 | > 100 | > 100 | > 100 | – | – | –
CC1OC(OC2C(O[C@H]3CC[C@@]4(C)[C@@H](CC[C@@H]5[C@@H]4CC[C@]4(C)[C@@H]6[C@H](C[C@@H]54)O[C@]4(CC[C@@H](C)CO4)[C@H]6C)C3)OC(CO)C(OC3OC(CO)C(O)C(OC4OCC(O)C(O)C4O)C3OC3OCC(O)C(O)C3O)C2O)C(O)C(O)C1O (stereo partly specified) | 3.25 | 3.01 | 1.85 | 1.05 | 3.44 | 1.92 | 0.963 | 2.27 | 36.3 | 2.93 | – | – | – | –
COc1nc(SC)nc2c1cnn2C1OC(C(O)CO)C(OC)C1O (stereo unspecified) | > 100 | > 100 | > 100 | > 100 | > 100 | > 100 | – | > 100 | – | > 100 | – | – | – | –
O=C1NC(Cc2c[nH]c3ccccc23)C(=O)N2C(C3CCCCC3)c3[nH]c4ccccc4c3C[C@@H]12 (stereo partly specified) | 56.7 | – | 21.2 | > 100 | – | 31.4 | 28.9 | 32.2 | 25.2 | 51 | 34 | – | – | –
OC12COc3ccccc3C1Oc1ccccc1C2 (stereo unspecified) | > 100 | > 100 | – | > 100 | > 100 | > 100 | > 100 | > 100 | > 100 | > 100 | – | – | – | –
CCCC/C=C/C1Cc2ccccc2CN1S(=O)(=O)c1ccc(C)cc1 (stereo unspecified) | 28.6 | 25.3 | 23.9 | 26.3 | 90.6 | 22.1 | 26 | > 100 | – | 16.4 | 41.8 | – | – | –
CCCCc1c2c(nc3c1CCCC3O)/C(=C/c1ccccc1)CCC2 (stereo unspecified) | > 100 | 24.3 | 71.7 | > 100 | > 100 | 36.8 | 53.8 | 51.7 | – | > 100 | 42 | – | – | –
CCCc1c(OC)c(=O)c2c(OC)cc(OC)c3c4c(OC)cc(OC)c5c(=O)c(OC)c(CCC)c(c1c23)c54 | 40.8 | 38.7 | 69.1 | 43.7 | 30.4 | 34.1 | 30.6 | 49.8 | 32.9 | 29.5 | – | – | – | –
CSc1nc(-c2cc3c(c(SC)n2)CCCCC3)cc2c1CCCCC2 | > 100 | > 100 | > 100 | > 100 | > 100 | > 100 | > 100 | > 100 | > 100 | > 100 | – | – | – | –
CCCN(CCCC(NC(C)=O)C(=O)NCc1ccccc1)C(=O)NC (stereo unspecified) | > 100 | > 100 | > 100 | > 100 | > 100 | > 100 | > 100 | > 100 | – | > 100 | – | – | – | –
CCOC(=O)c1c(C)c2c(n1C)CCc1cn[nH]c1-2 | > 100 | > 100 | > 100 | > 100 | > 100 | > 100 | – | > 100 | – | > 100 | – | – | – | –
CC(N)C(C)Cc1ccccc1 (stereo unspecified) | > 100 | > 100 | > 100 | > 100 | > 100 | > 100 | > 100 | – | > 100 | > 100 | – | – | – | –
NCCCNc1nc2ccccc2c2c(=O)c3cc(C(F)(F)F)ccc3sc12 | – | – | 2.72 | – | – | – | 3.12 | 3.82 | – | – | – | 1.38 | 1.64 | 1.93
COC(OC)c1cccc2c1C(=O)CCC1(O)c3ccccc3C1C2 (stereo unspecified) | > 100 | > 100 | – | > 100 | > 100 | > 100 | > 100 | > 100 | – | > 100 | > 100 | – | – | –
Nc1nc(SCCNC(=O)CCc2ccc(O)cc2)nc2c1ncn2C1OC(CO)C(O)C1O (stereo unspecified) | > 203 | > 203 | – | > 203 | > 203 | > 203 | > 203 | > 203 | – | > 203 | > 203 | – | – | –
COc1ccc(C2C3C(=O)C=CC(=O)C3[C@@H]2C)cc1OC (stereo partly specified) | > 100 | > 100 | > 100 | > 100 | > 100 | > 100 | > 100 | > 100 | – | > 100 | – | – | – | –
Clc1ccc(SCCSCCCCCCCCCCSCCSc2ccc(Cl)cc2)cc1 | > 100 | > 100 | > 100 | > 100 | > 100 | > 100 | – | > 100 | – | > 100 | – | – | – | –
